Columns and labels:
Hep-3B cells = assay: Cellular assay: erythropoietin secretion in Hep-3B cells; assay type: cell-based, human; details: Homo sapiens, Hep3B, 100 μM compound, 24 hours, percent of EPO secretion relative to assay control compound 7-[(4-Chloro-phenyl)-(5-methyl-isoxazol-3-ylamino)-methyl]-quinolin-8-ol, read-out: Cellular % EPO Stimulation
Protocol: Hep-3B cells (ATCC, Manassas, Va.) were plated in 96-well plates at 20,000 cells per well in 100 μl of DMEM containing 10% fetal bovine serum, 1% non-essential amino acids, 50 IU/mL of penicillin and 50 μg/mL of streptomycin (all cell culture reagents from Invitrogen, Carlsbad, Calif.). Twenty-four hours after plating, compounds were added and incubated for an additional 24 hours. All compounds were tested under saturating conditions with final compound concentrations at 100 μM. Fifty microliters of the supernatant was then transferred to a human Hypoxia assay kit (Meso-Scale Discovery, Gaithersburg, Md.). Erythropoietin in the supernatant was detected according to the manufacturer's instructions as follows. EPO detection plates were blocked with 3% BSA in PBS overnight and 50 μl of the supernatant was incubated at room temperature in an orbital shaker for 2 h. Twenty-five microliters of 0.5 μg/ml anti-EPO detection antibody was added for 2 hours at room temperature in an orbital shaker. After 3 washes in PBS, 150 μl of 1× read buffer is added and the plate is then read on the MSD SECTOR instrument.

human PHD2 (PHD2181-417) = biological target: T1, human PHD2 (PHD2181-417) (Homo sapiens, UniProt Q9GZT9); assay: PHD enzymatic assay ([14C]-succinic acid production); assay type: biochemical; details: PHD2181-417, HIF-1α peptide 10 μM, average of results; read-out: Enzyme pIC50 (converted)
T1 construct: Smt (SUMO) tag (cleaved yes); made in house; host or cells: E. coli BL21 (pBAD vector)
Protocol: Protein production was achieved by expression in BL21 cells grown in Terrific Broth containing 100 μg/ml ampicillin. Cell cultures were inoculated at 37° C. and grown to an OD600 of 0.8. Cultures were induced with 0.1% arabinose and grown overnight at 20° C. with continuous shaking at 225 rpm. Cells were then harvested by centrifugation and stored at −80° C. Cell pellets were suspended in Buffer A (50 mM Tris-HCl pH 7.2, 100 mM NaCl, 100 mM L-arginine, 1 mM TCEP, 0.05% (w/v) NP-40, 50 mM imidazole) followed by the addition of lysozyme and benzonase. Cells were lysed by sonication and the lysate was cleared by centrifugation (15,000 rpm, 90 min, 4° C.). The protein was purified by nickel affinity chromatography using a HisTrap Crude FF column (GE Healthcare). Samples were eluted in Buffer A with a 50-200 mM imidazole gradient. […] The flow-through was then dialyzed into 50 mM MES pH 6.0, 1 mM TCEP, 5 mM NaCl for ion exchange chromatography on a HiTrap SP Cation Exchange column (GE Healthcare). […] Fractions were pooled for further purification by size exclusion chromatography over a Superdex 75 Size Exclusion Column (GE Healthcare). Final protein was concentrated to 4 mg/ml and dialyzed in 10 mM PIPES pH 7.0, 100 mM NaCl, 0.5 mM TCEP.
(10 μM, California Peptide Research Inc., Napa, Calif.), and [5-^14C]-2-oxoglutaric acid (50 mCi/mmol, Moravek Chemicals, Brea, Calif.) in reaction buffer (40 mM Tris-HCl, pH 7.5, 0.4 mg/ml catalase, 0.5 mM DTT, 1 mM ascorbate) for 10 minutes. The reaction was stopped by addition of 50 μl of 70 mM H3PO4 and 50 μl of 500 mM NaH2PO4, pH3.2. Detection of [^14C]-succinic acid was achieved by separating from [5-^14C]-2-oxoglutaric acid by incubating the reaction mixture with 100 μl of 0.16 M DNP prepared in 30% perchloric acid. Next, 50 μl of unlabeled 20 mM 2-oxoglutaric acid/20 mM succinic acid, serving as carrier for the radioactivity, was added to the mixture, and was allowed to proceed for 30 minutes at room temperature. The reaction was then incubated with 50 μl of 1 M 2-oxoglutaric acid for 30 additional minutes at room temperature to precipitate the excess DNP. The reaction was then centrifuged at 2800×g for 10 minutes at room temperature to separate [^14C]-succinic acid in the supernatant from the precipitated [^14C]-dinitrophenylhydrazone. Fractions of the supernatant (400 μl) were counted using a beta counter (Beckman Coulter, Fullerton, Calif.).

T1 sequence (Q9GZT9 181-417): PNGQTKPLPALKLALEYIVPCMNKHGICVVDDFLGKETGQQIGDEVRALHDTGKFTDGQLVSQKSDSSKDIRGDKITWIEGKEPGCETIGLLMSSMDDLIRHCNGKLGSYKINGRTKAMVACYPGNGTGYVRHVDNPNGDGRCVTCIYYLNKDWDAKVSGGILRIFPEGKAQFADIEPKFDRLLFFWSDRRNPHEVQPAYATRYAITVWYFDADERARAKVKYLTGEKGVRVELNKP

Structure (SMILES) | Emax at 100 µM (Hep-3B cells) | IC50 (human PHD2 (PHD2181-417))
O=C(O)c1cnn(-c2nc3ccc(Oc4cc(Cl)ccc4Cl)cc3c(=O)[nH]2)c1 [Example 40, 1-[6-(2,5-Dichloro-phenoxy)-4-oxo-3,4-dihydro-quinazolin-2-yl]-1H-pyrazole-4-carboxylic acid] | 77% | 25.1 nM
COc1ccc(Oc2ccc3nc(-n4cc(C(=O)O)cn4)[nH]c(=O)c3c2)cc1 [Example 41, 1-[6-(4-Methoxy-phenoxy)-4-oxo-3,4-dihydro-quinazolin-2-yl]-1H-pyrazole-4-carboxylic acid] | 112% | 20 nM
Cc1cccc(C)c1Oc1ccc2nc(-n3cc(C(=O)O)cn3)[nH]c(=O)c2c1 [Example 42, 1-[6-(2,6-Dimethyl-phenoxy)-4-oxo-3,4-dihydro-quinazolin-2-yl]-1H-pyrazole-4-carboxylic acid] | 117% | 25.1 nM
O=C(O)c1cnn(-c2nc3ccc(Oc4ccc5ccccc5c4)cc3c(=O)[nH]2)c1 [Example 43, 1-[6-(Naphthalen-2-yloxy)-4-oxo-3,4-dihydro-quinazolin-2-yl]-1H-pyrazole-4-carboxylic acid] | 76% | 25.1 nM
O=C(O)c1cnn(-c2nc3ccc(Oc4cccc5c4CCCC5)cc3c(=O)[nH]2)c1 [Example 44, 1-[4-Oxo-6-(5,6,7,8-tetrahydro-naphthalen-1-yloxy)-3,4-dihydro-quinazolin-2-yl]-1H-pyrazole-4-carboxylic acid] | 52% | 25.1 nM
O=C(O)c1cnn(-c2nc3ccc(Oc4ccc(Cl)cc4)cc3c(=O)[nH]2)c1 [Example 46, 1-[6-(4-Chloro-phenoxy)-4-oxo-3,4-dihydro-quinazolin-2-yl]-1H-pyrazole-4-carboxylic acid] | 126% | 31.6 nM
Cc1ccc(Oc2ccc3nc(-n4cc(C(=O)O)cn4)[nH]c(=O)c3c2)cc1 [Example 47, 1-(4-Oxo-6-p-tolyloxy-3,4-dihydro-quinazolin-2-yl)-1H-pyrazole-4-carboxylic acid] | 95% | 31.6 nM
O=C(O)c1cnn(-c2nc3cc(Cl)c(Oc4ccc(Cl)cc4)cc3c(=O)[nH]2)c1 [Example 48, 1-[7-Chloro-6-(4-chloro-phenoxy)-4-oxo-3,4-dihydro-quinazolin-2-yl]-1H-pyrazole-4-carboxylic acid] | 51% | 31.6 nM
Cc1cccc(C)c1Oc1cc2c(=O)[nH]c(-n3cc(C(=O)O)cn3)nc2cc1Cl [Example 49, 1-[7-Chloro-6-(2,6-dimethyl-phenoxy)-4-oxo-3,4-dihydro-quinazolin-2-yl]-1H-pyrazole-4-carboxylic acid] | 55% | 31.6 nM
O=C(O)c1cnn(-c2nc3cc(F)c(Oc4c(Cl)cccc4Cl)cc3c(=O)[nH]2)c1 [Example 50, 1-[6-(2,6-Dichloro-phenoxy)-7-fluoro-4-oxo-3,4-dihydro-quinazolin-2-yl]-1H-pyrazole-4-carboxylic acid] | 67% | 31.6 nM
O=C(O)c1cnn(-c2nc3cc(F)c(Oc4ccc5ccccc5c4)cc3c(=O)[nH]2)c1 [Example 52, 1-[7-Fluoro-6-(naphthalen-2-yloxy)-4-oxo-3,4-dihydro-quinazolin-2-yl]-1H-pyrazole-4-carboxylic acid] | 76% | 39.8 nM
O=C(O)c1cnn(-c2nc3cc(Cl)c(Oc4cccc5ccccc45)cc3c(=O)[nH]2)c1 [Example 53, 1-[7-Chloro-6-(naphthalen-1-yloxy)-4-oxo-3,4-dihydro-quinazolin-2-yl]-1H-pyrazole-4-carboxylic acid] | 45% | 31.6 nM
O=C(O)c1cnn(-c2nc3cc(Cl)c(Oc4ccc5ccccc5c4)cc3c(=O)[nH]2)c1 [Example 54, 1-[7-Chloro-6-(naphthalen-2-yloxy)-4-oxo-3,4-dihydro-quinazolin-2-yl]-1H-pyrazole-4-carboxylic acid] | 90% | 39.8 nM
O=C(O)c1cnn(-c2nc3cc(Cl)c(Oc4cccc5c4CCCC5)cc3c(=O)[nH]2)c1 [Example 55, 1-[7-Chloro-4-oxo-6-(5,6,7,8-tetrahydro-naphthalen-1-yloxy)-3,4-dihydro-quinazolin-2-yl]-1H-pyrazole-4-carboxylic acid] | 25% | 31.6 nM
O=C(O)c1cnn(-c2nc3cc(F)c(Oc4cccc(F)c4)cc3c(=O)[nH]2)c1 [Example 56, 1-[7-Fluoro-6-(3-fluoro-phenoxy)-4-oxo-3,4-dihydro-quinazolin-2-yl]-1H-pyrazole-4-carboxylic acid] | 68% | 20 nM
O=C(O)c1cnn(-c2nc3cc(F)c(Oc4cccc5ccccc45)cc3c(=O)[nH]2)c1 [Example 57, 1-[7-Fluoro-6-(naphthalen-1-yloxy)-4-oxo-3,4-dihydro-quinazolin-2-yl]-1H-pyrazole-4-carboxylic acid] | 135% | 20 nM
O=C(O)c1cnn(-c2nc3cc(F)c(Oc4ccc5c(c4)CCC5)cc3c(=O)[nH]2)c1 [Example 58, 1-[7-Fluoro-6-(indan-5-yloxy)-4-oxo-3,4-dihydro-quinazolin-2-yl]-1H-pyrazole-4-carboxylic acid] | 62% | 31.6 nM
Cc1cc2nc(-n3cc(C(=O)O)cn3)[nH]c(=O)c2cc1Oc1ccccc1 [Example 59, 1-(7-Methyl-4-oxo-6-phenoxy-3,4-dihydro-quinazolin-2-yl)-1H-pyrazole-4-carboxylic acid] | 80% | 25.1 nM
O=C(O)c1cnn(-c2nc3ccc(Oc4cccc(Cl)c4Cl)cc3c(=O)[nH]2)c1 [Example 60, 1-[6-(2,3-dichloro-phenoxy)-4-oxo-3,4-dihydro-quinazolin-2-yl]-1H-pyrazole-4-carboxylic acid] | 70% | 31.6 nM
COc1cc2nc(-n3cc(C(=O)O)cn3)[nH]c(=O)c2cc1Oc1c(C)cccc1C [Example 61, 1-[6-(2,6-Dimethyl-phenoxy)-7-methoxy-4-oxo-3,4-dihydro-quinazolin-2-yl]-1H-pyrazole-4-carboxylic acid] | 86% | 20 nM
COc1cc2nc(-n3cc(C(=O)O)cn3)[nH]c(=O)c2cc1Oc1ccccc1 [Example 62, 1-(7-Methoxy-4-oxo-6-phenoxy-3,4-dihydro-quinazolin-2-yl)-1H-pyrazole-4-carboxylic acid] | 7% | 39.8 nM
Cc1cccc(C)c1Oc1c(F)cc2nc(-n3cc(C(=O)O)cn3)[nH]c(=O)c2c1F [Example 63, 1-[6-(2,6-Dimethyl-phenoxy)-5,7-difluoro-4-oxo-3,4-dihydro-quinazolin-2-yl]-1H-pyrazole-4-carboxylic acid] | 14% | 20 nM
O=C(O)c1cnn(-c2nc3cc(F)c(Oc4ccccc4)c(F)c3c(=O)[nH]2)c1 [Example 64, 1-(5,7-Difluoro-4-oxo-6-phenoxy-3,4-dihydro-quinazolin-2-yl)-1H-pyrazole-4-carboxylic acid] | 22% | 25.1 nM
O=C(O)c1cnn(-c2nc3ccc(Oc4cccnc4)cc3c(=O)[nH]2)c1 [Example 65, 1-[4-Oxo-6-(pyridin-3-yloxy)-3,4-dihydro-quinazolin-2-yl]-1H-pyrazole-4-carboxylic acid] | 42% | 25.1 nM

— patent publication US8937078B2, “Quinazolinones as prolyl hydroxylase inhibitors” (Janssen Pharmaceutica NV, priority 2009, dated 2015)
